Measured values as given in patent US3933782A, “(N-Acetyl)-Pro-D-Phe-Trp-Ser-Tyr-D-Ala-Leu-Arg-Pro-NHEt and intermediates” (American Home Products Corporation, priority 1974, dated 1976).
Where a SMILES comes first, the peptide text is derived from it. [ ]: non-standard residue; d: D form. pGlu = O=C1CC[C@@H](C(=O)O)N1

What was measured:
[1] = test system: ovulation in mature Sprague-Dawley rats; details: same rat ovulation test; absence of or significant decrease in number of ova is the criterion
Procedure: The test was conducted with mature Sprague-Dawley rats, normally cycling, unanesthetized, proestrous rats. On the afternoon of proestrous, each rat in the test group received six subcutaneous injections of the acetate salt of formula I in corn oil, each injection being given a half hour following the previous injection. The rats are sacrificed the next morning and the number of animals ovulating and the number of ova shed are recorded following the procedure described by E. S. France, Neuroendocrinology 6, pp 77-89 (1970). The absence of or a significant decrease in the number of ova is the criterion for an anti-ovulation effect.

ovulation = details: as described in Ser. No. 402,958, now U.S. Pat. No. 3,855,199; cited from earlier work

| Molecule | antiovulatory activity (result in words) [1] | anti-ovulatory activity (result in words) (ovulation) |
| --- | --- | --- |
| CCNC(=O)[C@@H]1CCCN1C(=O)[C@H](CCCNC(=N)N)NC(=O)[C@H](CC(C)C)NC(=O)[C@@H](C)NC(=O)[C@H](Cc1ccc(O)cc1)NC(=O)[C@H](CO)NC(=O)[C@H](Cc1c[nH]c2ccccc12)NC(=O)[C@@H](Cc1ccccc1)NC(=O)[C@@H]1CCC(=O)N1 [p-Glu-D-Phe-Trp-Ser-Tyr-D-Ala-Leu-Arg-Pro-NHEt] ([pGlu][dF]WSY[dA]LRP-NHEt) | devoid of antiovulatory activity |  |
| [D-Phe^2 -D-Ala^6 ]-LRF |  | having anti-ovulatory activity |
